# Source: paper PMC6199309, “A therapeutic approach to pantothenate kinase associated neurodegeneration” (Nature Communications, 2018)
# What was measured:
# AAK1 = target: T1, AAK1 (Homo sapiens, UniProt Q2M2I8); experiment: KINOMEscan; type: binding; settings: read-out: %Ctrl @ 10000nM
# T1 construct: purchased DiscoverX KINOMEscan
# [1] = target: T2, ABL1(E255K)-phosphorylated (Homo sapiens, UniProt P00519, E255K); experiment: KINOMEscan; type: binding; settings: read-out: %Ctrl @ 10000nM
# T2 construct: purchased DiscoverX KINOMEscan
# [2] = target: T3, ABL1(F317L)-nonphosphorylated (Homo sapiens, UniProt P00519, F317L); experiment: KINOMEscan; type: binding; settings: read-out: %Ctrl @ 10000nM
# T3 construct: purchased DiscoverX KINOMEscan
# [3] = target: T4, ABL1(Q252H)-phosphorylated (Homo sapiens, UniProt P00519, Q252H); experiment: KINOMEscan; type: binding; settings: read-out: %Ctrl @ 10000nM
# T4 construct: purchased DiscoverX KINOMEscan
# ALK = target: T5, ALK (Homo sapiens, UniProt Q9UM73); experiment: KINOMEscan; type: binding; settings: read-out: %Ctrl @ 10000nM
# T5 construct: purchased DiscoverX KINOMEscan
# ASK1 = target: T6, ASK1 (Homo sapiens, UniProt Q99683); experiment: KINOMEscan; type: binding; settings: read-out: %Ctrl @ 10000nM
# T6 construct: purchased DiscoverX KINOMEscan
# BLK = target: T7, BLK (Homo sapiens, UniProt P51451); experiment: KINOMEscan; type: binding; settings: read-out: %Ctrl @ 10000nM
# T7 construct: purchased DiscoverX KINOMEscan
# BTK = target: T8, BTK (Homo sapiens, UniProt Q06187); experiment: KINOMEscan; type: binding; settings: read-out: %Ctrl @ 10000nM
# T8 construct: purchased DiscoverX KINOMEscan
# BUB1 = target: T9, BUB1 (Homo sapiens, UniProt O43683); experiment: KINOMEscan; type: binding; settings: read-out: %Ctrl @ 10000nM
# T9 construct: purchased DiscoverX KINOMEscan
# CAMK1B = target: T10, CAMK1B (Homo sapiens, UniProt Q6P2M8); experiment: KINOMEscan; type: binding; settings: read-out: %Ctrl @ 10000nM
# T10 construct: purchased DiscoverX KINOMEscan
# CSF1R = target: T11, CSF1R (Homo sapiens, UniProt P07333); experiment: KINOMEscan; type: binding; settings: read-out: %Ctrl @ 10000nM
# T11 construct: purchased DiscoverX KINOMEscan
# CSK = target: T12, CSK (Homo sapiens, UniProt P41240); experiment: KINOMEscan; type: binding; settings: read-out: %Ctrl @ 10000nM
# T12 construct: purchased DiscoverX KINOMEscan
# DCAMKL1 = target: T13, DCAMKL1 (Homo sapiens, UniProt O15075); experiment: KINOMEscan; type: binding; settings: read-out: %Ctrl @ 10000nM
# T13 construct: purchased DiscoverX KINOMEscan
# DDR2 = target: T14, DDR2 (Homo sapiens, UniProt Q16832); experiment: KINOMEscan; type: binding; settings: read-out: %Ctrl @ 10000nM
# T14 construct: purchased DiscoverX KINOMEscan
# DYRK1B = target: T15, DYRK1B (Homo sapiens, UniProt Q9Y463); experiment: KINOMEscan; type: binding; settings: read-out: %Ctrl @ 10000nM
# T15 construct: purchased DiscoverX KINOMEscan
# FGFR2 = target: T16, FGFR2 (Homo sapiens, UniProt P21802); experiment: KINOMEscan; type: binding; settings: read-out: %Ctrl @ 10000nM
# T16 construct: purchased DiscoverX KINOMEscan
# FLT3 = target: T17, FLT3 (Homo sapiens, UniProt P36888); experiment: KINOMEscan; type: binding; settings: read-out: %Ctrl @ 10000nM
# T17 construct: purchased DiscoverX KINOMEscan
# IKK-alpha = target: T18, IKK-alpha (Homo sapiens, UniProt O15111); experiment: KINOMEscan; type: binding; settings: read-out: %Ctrl @ 10000nM
# T18 construct: purchased DiscoverX KINOMEscan
# LRRK2(G2019S) = target: T19, LRRK2(G2019S) (Homo sapiens, UniProt Q5S007, G2019S); experiment: KINOMEscan; type: binding; settings: read-out: %Ctrl @ 10000nM
# T19 construct: purchased DiscoverX KINOMEscan
# MAP3K1 = target: T20, MAP3K1 (Homo sapiens, UniProt Q13233); experiment: KINOMEscan; type: binding; settings: read-out: %Ctrl @ 10000nM
# T20 construct: purchased DiscoverX KINOMEscan
# MAP4K4 = target: T21, MAP4K4 (Homo sapiens, UniProt O95819); experiment: KINOMEscan; type: binding; settings: read-out: %Ctrl @ 10000nM
# T21 construct: purchased DiscoverX KINOMEscan
# MARK1 = target: T22, MARK1 (Homo sapiens, UniProt Q9P0L2); experiment: KINOMEscan; type: binding; settings: read-out: %Ctrl @ 10000nM
# T22 construct: purchased DiscoverX KINOMEscan
# MET = target: T23, MET (Homo sapiens, UniProt P08581); experiment: KINOMEscan; type: binding; settings: read-out: %Ctrl @ 10000nM
# T23 construct: purchased DiscoverX KINOMEscan
# MLK2 = target: T24, MLK2 (Homo sapiens, UniProt Q02779); experiment: KINOMEscan; type: binding; settings: read-out: %Ctrl @ 10000nM
# T24 construct: purchased DiscoverX KINOMEscan
# NEK9 = target: T25, NEK9 (Homo sapiens, UniProt Q8TD19); experiment: KINOMEscan; type: binding; settings: read-out: %Ctrl @ 10000nM
# T25 construct: purchased DiscoverX KINOMEscan
# PAK6 = target: T26, PAK6 (Homo sapiens, UniProt Q9NQU5); experiment: KINOMEscan; type: binding; settings: read-out: %Ctrl @ 10000nM
# T26 construct: purchased DiscoverX KINOMEscan
# PCTK3 = target: T27, PCTK3 (Homo sapiens, UniProt Q07002); experiment: KINOMEscan; type: binding; settings: read-out: %Ctrl @ 10000nM
# T27 construct: purchased DiscoverX KINOMEscan
# PFCDPK1(P.falciparum) = target: T28, PFCDPK1(P.falciparum) (Plasmodium falciparum, UniProt P62344); experiment: KINOMEscan; type: binding; settings: read-out: %Ctrl @ 10000nM
# T28 construct: purchased DiscoverX KINOMEscan
# PFTAIRE2 = target: T29, PFTAIRE2 (Homo sapiens, UniProt Q96Q40); experiment: KINOMEscan; type: binding; settings: read-out: %Ctrl @ 10000nM
# T29 construct: purchased DiscoverX KINOMEscan
# PIK3CA(H1047Y) = target: T30, PIK3CA(H1047Y) (Homo sapiens, UniProt P42336, H1047Y); experiment: KINOMEscan; type: binding; settings: read-out: %Ctrl @ 10000nM
# T30 construct: purchased DiscoverX KINOMEscan
# PIP5K1A = target: T31, PIP5K1A (Homo sapiens, UniProt Q99755); experiment: KINOMEscan; type: binding; settings: read-out: %Ctrl @ 10000nM
# T31 construct: purchased DiscoverX KINOMEscan
# PKN1 = target: T32, PKN1 (Homo sapiens, UniProt Q16512); experiment: KINOMEscan; type: binding; settings: read-out: %Ctrl @ 10000nM
# T32 construct: purchased DiscoverX KINOMEscan
# RIOK2 = target: T33, RIOK2 (Homo sapiens, UniProt Q9BVS4); experiment: KINOMEscan; type: binding; settings: read-out: %Ctrl @ 10000nM
# T33 construct: purchased DiscoverX KINOMEscan
# TAOK1 = target: T34, TAOK1 (Homo sapiens, UniProt Q7L7X3); experiment: KINOMEscan; type: binding; settings: read-out: %Ctrl @ 10000nM
# T34 construct: purchased DiscoverX KINOMEscan
# TGFBR1 = target: T35, TGFBR1 (Homo sapiens, UniProt P36897); experiment: KINOMEscan; type: binding; settings: read-out: %Ctrl @ 10000nM
# T35 construct: purchased DiscoverX KINOMEscan
# TNK1 = target: T36, TNK1 (Homo sapiens, UniProt Q13470); experiment: KINOMEscan; type: binding; settings: read-out: %Ctrl @ 10000nM
# T36 construct: purchased DiscoverX KINOMEscan
# TRPM6 = target: T37, TRPM6 (Homo sapiens, UniProt Q9BX84); experiment: KINOMEscan; type: binding; settings: read-out: %Ctrl @ 10000nM
# T37 construct: DNA label for qPCR (T7 phage fusion or DNA tag); purchased DiscoverX scanMAX; host or cells: E. coli BL21-derived (T7 phage) or HEK-293
# TTK = target: T38, TTK (Homo sapiens, UniProt P33981); experiment: KINOMEscan; type: binding; settings: read-out: %Ctrl @ 10000nM
# T38 construct: DNA label for qPCR (T7 phage fusion or DNA tag); purchased DiscoverX scanMAX; host or cells: E. coli BL21-derived (T7 phage) or HEK-293
# WNK3 = target: T39, WNK3 (Homo sapiens, UniProt Q9BYP7); experiment: KINOMEscan; type: binding; settings: read-out: %Ctrl @ 10000nM
# T39 construct: DNA label for qPCR (T7 phage fusion or DNA tag); purchased DiscoverX scanMAX; host or cells: E. coli BL21-derived (T7 phage) or HEK-293
# YANK3 = target: T40, YANK3 (Homo sapiens, UniProt Q86UX6); experiment: KINOMEscan; type: binding; settings: read-out: %Ctrl @ 10000nM
# T40 construct: purchased DiscoverX scanMAX; host or cells: E. coli BL21-derived host (T7 phage) or HEK-293
# ZAK = target: T41, ZAK (Homo sapiens, UniProt Q9NYL2); experiment: KINOMEscan; type: binding; settings: read-out: %Ctrl @ 10000nM
# T41 construct: purchased DiscoverX scanMAX; host or cells: E. coli BL21-derived host (T7 phage) or HEK-293
# Protein binding = settings: rat
# T8 sequence (Q06187 whole entry): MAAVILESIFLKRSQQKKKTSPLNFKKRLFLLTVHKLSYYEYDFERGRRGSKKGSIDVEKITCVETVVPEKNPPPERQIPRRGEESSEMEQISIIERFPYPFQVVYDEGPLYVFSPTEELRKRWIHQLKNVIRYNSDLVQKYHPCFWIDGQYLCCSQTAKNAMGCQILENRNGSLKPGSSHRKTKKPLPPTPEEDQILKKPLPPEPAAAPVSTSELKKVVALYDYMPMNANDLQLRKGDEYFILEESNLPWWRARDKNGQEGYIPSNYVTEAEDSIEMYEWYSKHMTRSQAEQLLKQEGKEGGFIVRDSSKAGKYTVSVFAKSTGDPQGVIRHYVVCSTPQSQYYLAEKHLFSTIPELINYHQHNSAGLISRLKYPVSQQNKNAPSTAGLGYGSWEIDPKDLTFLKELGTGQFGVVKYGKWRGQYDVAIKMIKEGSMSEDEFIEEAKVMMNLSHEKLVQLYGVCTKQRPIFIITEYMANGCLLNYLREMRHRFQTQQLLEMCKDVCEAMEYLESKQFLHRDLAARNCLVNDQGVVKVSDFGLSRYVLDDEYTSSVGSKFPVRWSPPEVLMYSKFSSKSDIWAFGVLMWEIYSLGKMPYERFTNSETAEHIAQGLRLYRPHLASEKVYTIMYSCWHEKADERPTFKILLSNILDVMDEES
# T35 sequence (P36897 34-503): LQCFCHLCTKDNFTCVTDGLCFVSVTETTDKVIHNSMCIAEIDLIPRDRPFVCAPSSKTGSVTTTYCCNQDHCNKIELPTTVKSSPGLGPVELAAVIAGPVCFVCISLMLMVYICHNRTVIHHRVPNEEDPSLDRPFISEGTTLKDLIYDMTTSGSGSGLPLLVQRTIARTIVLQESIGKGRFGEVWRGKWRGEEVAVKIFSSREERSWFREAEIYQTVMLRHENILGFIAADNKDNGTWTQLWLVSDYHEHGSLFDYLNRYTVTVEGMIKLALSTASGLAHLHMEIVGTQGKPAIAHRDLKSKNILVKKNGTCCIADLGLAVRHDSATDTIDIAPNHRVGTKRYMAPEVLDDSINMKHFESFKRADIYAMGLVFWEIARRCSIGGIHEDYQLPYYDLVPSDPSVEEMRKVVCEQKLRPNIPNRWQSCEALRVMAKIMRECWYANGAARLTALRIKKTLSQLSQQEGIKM
# T18 sequence (O15111 whole entry): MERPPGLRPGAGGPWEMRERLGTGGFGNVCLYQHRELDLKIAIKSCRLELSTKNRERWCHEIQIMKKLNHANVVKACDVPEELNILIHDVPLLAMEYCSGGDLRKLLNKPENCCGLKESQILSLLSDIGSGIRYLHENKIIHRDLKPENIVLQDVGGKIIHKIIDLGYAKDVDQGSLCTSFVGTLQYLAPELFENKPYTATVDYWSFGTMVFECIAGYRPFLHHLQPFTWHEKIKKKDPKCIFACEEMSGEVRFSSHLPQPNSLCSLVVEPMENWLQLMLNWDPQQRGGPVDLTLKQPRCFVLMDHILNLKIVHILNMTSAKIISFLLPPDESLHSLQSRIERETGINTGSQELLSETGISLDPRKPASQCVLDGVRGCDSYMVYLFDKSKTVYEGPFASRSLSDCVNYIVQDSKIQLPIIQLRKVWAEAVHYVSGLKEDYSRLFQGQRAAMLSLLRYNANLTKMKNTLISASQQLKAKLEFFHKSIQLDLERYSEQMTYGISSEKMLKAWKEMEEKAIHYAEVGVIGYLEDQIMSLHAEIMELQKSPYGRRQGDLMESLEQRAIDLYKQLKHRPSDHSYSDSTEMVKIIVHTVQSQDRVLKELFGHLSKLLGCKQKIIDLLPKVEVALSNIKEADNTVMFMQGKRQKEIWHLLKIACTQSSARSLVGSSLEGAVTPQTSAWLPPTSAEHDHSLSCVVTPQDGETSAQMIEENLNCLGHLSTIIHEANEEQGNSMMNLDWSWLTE
# T37 sequence (Q9BX84 whole entry, the tested form may be a part): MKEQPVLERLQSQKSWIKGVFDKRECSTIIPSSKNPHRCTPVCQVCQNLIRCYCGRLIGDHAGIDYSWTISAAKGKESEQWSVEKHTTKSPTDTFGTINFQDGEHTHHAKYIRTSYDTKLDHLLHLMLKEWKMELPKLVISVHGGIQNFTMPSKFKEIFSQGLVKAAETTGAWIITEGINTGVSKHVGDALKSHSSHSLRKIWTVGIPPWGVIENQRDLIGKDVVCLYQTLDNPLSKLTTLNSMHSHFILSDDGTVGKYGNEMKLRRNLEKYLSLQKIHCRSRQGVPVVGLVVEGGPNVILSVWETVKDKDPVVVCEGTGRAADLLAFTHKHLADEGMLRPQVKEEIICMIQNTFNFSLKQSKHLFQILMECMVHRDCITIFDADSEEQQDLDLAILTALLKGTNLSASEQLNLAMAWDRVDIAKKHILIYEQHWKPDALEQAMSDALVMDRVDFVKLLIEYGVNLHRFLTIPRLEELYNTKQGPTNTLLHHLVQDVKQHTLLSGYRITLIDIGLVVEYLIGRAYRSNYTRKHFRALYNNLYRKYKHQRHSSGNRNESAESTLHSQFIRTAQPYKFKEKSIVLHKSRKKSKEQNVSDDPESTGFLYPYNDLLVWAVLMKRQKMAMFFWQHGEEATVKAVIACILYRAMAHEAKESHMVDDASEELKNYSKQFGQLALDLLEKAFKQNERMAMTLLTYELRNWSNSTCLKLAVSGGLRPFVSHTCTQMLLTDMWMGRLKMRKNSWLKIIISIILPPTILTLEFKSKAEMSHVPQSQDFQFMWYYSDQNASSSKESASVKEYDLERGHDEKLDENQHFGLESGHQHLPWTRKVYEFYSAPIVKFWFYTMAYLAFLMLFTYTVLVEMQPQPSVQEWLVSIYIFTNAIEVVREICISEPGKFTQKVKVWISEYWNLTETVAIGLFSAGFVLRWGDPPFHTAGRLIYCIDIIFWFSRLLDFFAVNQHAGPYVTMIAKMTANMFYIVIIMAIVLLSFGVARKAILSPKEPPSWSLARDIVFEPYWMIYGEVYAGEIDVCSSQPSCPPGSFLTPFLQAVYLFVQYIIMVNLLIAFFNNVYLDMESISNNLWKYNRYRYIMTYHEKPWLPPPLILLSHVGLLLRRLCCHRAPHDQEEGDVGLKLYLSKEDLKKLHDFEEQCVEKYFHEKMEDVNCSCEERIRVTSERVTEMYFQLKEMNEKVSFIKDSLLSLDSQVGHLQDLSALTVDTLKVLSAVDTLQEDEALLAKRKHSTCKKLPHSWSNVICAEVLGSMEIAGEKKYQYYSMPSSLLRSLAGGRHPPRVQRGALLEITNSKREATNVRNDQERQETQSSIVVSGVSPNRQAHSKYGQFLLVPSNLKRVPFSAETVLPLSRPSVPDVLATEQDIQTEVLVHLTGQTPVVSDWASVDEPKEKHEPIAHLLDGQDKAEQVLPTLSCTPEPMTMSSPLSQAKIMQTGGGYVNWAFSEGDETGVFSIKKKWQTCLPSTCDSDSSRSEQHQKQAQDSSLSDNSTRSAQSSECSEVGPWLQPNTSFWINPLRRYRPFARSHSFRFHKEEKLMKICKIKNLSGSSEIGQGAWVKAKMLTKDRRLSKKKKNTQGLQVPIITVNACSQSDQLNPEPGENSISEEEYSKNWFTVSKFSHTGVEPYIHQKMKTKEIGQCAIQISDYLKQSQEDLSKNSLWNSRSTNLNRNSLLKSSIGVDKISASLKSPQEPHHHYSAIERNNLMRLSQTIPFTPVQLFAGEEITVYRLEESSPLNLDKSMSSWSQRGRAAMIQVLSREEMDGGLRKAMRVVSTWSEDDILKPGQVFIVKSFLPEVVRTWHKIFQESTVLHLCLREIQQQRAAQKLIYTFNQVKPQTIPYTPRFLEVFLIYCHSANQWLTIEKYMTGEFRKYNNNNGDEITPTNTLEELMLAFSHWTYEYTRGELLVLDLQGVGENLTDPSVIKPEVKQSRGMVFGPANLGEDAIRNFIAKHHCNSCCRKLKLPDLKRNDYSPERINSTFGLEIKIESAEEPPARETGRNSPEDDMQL
# T15 sequence (Q9Y463 whole entry): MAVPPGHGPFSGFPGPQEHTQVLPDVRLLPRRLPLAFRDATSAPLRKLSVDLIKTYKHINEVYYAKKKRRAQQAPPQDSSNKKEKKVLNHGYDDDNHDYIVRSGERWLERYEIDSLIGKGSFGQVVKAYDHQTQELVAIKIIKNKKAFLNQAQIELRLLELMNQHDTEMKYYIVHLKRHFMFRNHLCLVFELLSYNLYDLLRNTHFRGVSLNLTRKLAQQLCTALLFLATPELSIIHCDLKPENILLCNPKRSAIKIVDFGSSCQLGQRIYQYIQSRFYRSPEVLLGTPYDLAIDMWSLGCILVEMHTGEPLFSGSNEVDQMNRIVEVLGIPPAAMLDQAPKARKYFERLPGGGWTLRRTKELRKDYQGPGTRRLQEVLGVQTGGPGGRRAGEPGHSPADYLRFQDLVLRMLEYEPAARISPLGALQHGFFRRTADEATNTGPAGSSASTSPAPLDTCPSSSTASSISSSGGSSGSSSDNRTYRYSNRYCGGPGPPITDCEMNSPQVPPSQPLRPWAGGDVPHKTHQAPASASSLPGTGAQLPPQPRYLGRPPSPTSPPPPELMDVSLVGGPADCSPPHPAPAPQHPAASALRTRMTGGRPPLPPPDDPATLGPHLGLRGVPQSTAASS
# T12 sequence (P41240 whole entry): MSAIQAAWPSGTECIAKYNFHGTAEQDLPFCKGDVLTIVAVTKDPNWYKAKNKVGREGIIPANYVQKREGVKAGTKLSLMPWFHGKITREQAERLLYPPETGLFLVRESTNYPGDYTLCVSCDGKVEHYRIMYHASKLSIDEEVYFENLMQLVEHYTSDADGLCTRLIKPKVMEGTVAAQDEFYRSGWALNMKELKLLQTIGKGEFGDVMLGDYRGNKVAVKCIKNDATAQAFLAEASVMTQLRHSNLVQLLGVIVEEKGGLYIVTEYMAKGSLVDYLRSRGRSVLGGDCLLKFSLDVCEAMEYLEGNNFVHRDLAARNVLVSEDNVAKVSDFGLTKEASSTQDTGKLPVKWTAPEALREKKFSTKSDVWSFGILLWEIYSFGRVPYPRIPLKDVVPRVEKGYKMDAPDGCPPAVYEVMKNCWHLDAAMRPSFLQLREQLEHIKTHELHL
smiles,measurement,setting,value
"CC(C)c1ccc(CC(=O)N2CCN(c3ccc(C#N)nn3)CC2)cc1 [PZ-2891, 6-(4-(2-(4-isopropylphenyl)acetyl)piperazin-1-yl)pyridazine-3-carbonitrile]",remaining binding at 10 µM,AAK1,84%
same,remaining binding at 10 µM,[1],53%
same,remaining binding at 10 µM,[2],73%
same,remaining binding at 10 µM,[3],74%
same,remaining binding at 10 µM,ALK,100%
same,remaining binding at 10 µM,ASK1,74%
same,remaining binding at 10 µM,BLK,87%
same,remaining binding at 10 µM,BTK,94%
same,remaining binding at 10 µM,BUB1,100%
same,remaining binding at 10 µM,CAMK1B,100%
same,remaining binding at 10 µM,CSF1R,91%
same,remaining binding at 10 µM,CSK,97%
same,remaining binding at 10 µM,DCAMKL1,80%
same,remaining binding at 10 µM,DDR2,85%
same,remaining binding at 10 µM,DYRK1B,66%
same,remaining binding at 10 µM,FGFR2,100%
same,remaining binding at 10 µM,FLT3,57%
same,remaining binding at 10 µM,IKK-alpha,100%
same,remaining binding at 10 µM,LRRK2(G2019S),100%
same,remaining binding at 10 µM,MAP3K1,89%
same,remaining binding at 10 µM,MAP4K4,100%
same,remaining binding at 10 µM,MARK1,77%
same,remaining binding at 10 µM,MET,80%
same,remaining binding at 10 µM,MLK2,72%
same,remaining binding at 10 µM,NEK9,96%
same,remaining binding at 10 µM,PAK6,100%
same,remaining binding at 10 µM,PCTK3,92%
same,remaining binding at 10 µM,PFCDPK1(P.falciparum),97%
same,remaining binding at 10 µM,PFTAIRE2,99%
same,remaining binding at 10 µM,PIK3CA(H1047Y),46%
same,remaining binding at 10 µM,PIP5K1A,86%
same,remaining binding at 10 µM,PKN1,69%
same,remaining binding at 10 µM,RIOK2,86%
same,remaining binding at 10 µM,TAOK1,93%
same,remaining binding at 10 µM,TGFBR1,99%
same,remaining binding at 10 µM,TNK1,100%
same,remaining binding at 10 µM,TRPM6,98%
same,remaining binding at 10 µM,TTK,96%
same,remaining binding at 10 µM,WNK3,100%
same,remaining binding at 10 µM,YANK3,84%
same,remaining binding at 10 µM,ZAK,88%
same,fraction unbound,Protein binding,0.09
